Target: T1, RANTES/MIP-1α chemokine receptor (CCR1) in THP-1 cell membranes (Homo sapiens, UniProt P32246)
T1 construct: Membranes were prepared from THP-1 cells (ATCC #TIB202); host or cells: THP-1 cells (membrane preparation)
T1 sequence (P32246 1-355): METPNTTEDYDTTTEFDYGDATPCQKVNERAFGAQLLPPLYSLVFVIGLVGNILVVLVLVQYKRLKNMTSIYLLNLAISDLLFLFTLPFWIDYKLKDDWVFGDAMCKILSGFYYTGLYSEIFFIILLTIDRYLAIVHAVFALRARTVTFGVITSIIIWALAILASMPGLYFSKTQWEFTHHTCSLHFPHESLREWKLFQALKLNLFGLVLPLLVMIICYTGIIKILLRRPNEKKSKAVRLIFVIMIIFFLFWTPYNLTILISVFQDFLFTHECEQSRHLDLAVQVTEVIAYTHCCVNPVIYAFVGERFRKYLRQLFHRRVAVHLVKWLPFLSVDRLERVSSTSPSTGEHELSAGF
Assay: Receptor binding assay: 125I-RANTES or 125I-MIP-1α binding to THP-1 cell membranes
Settings: inhibitor concentration required for 50% inhibition of specific binding; 125I-RANTES or 125I-MIP-1α as ligand, THP-1 cell membranes; read-out: IC50

How did the IC50 turn out when `CCN(C(=O)Nc1ccc(Cl)cc1)C1CCN(CCC=C2c3cc(C(C)(C)O)ccc3OCc3ncccc32)C1` (stereo not shown) [Example 548, 3-(4-Chloro-phenyl)-1-ethyl-1-(1-{3-[7-(1-hydroxy-1-methyl-ethyl)-11H-10-oxa-1-aza-dibenzo[a,d]cyclohepten-5-ylidene]-propyl}-pyrrolidin-3-yl)-urea] was run?
Its IC50 is less than 10 µM.

How did the IC50 turn out when `CC(C)(O)c1ccc2c(c1)C(=CCCN1CCC(OCc3ccc(Cl)cc3)C1)c1cccnc1CO2` (stereo not shown) [Example 549, 2-(5-{3-[3-(4-Chloro-benzyloxy)-pyrrolidin-1-yl]-propylidene}-5,11-dihydro-10-oxa-1-aza-dibenzo[a,d]cyclohepten-7-yl)-propan-2-ol] was run?
The IC50 was less than 1 µM.

For `CC(C)CN(Cc1ccc(Cl)cc1)C1CCN(CCC=C2c3cc(C(C)(C)O)ccc3OCc3ncccc32)C1` (stereo not shown) [Example 550, 2-[5-(3-{3-[(4-Chloro-benzyl)-isobutyl-amino]-pyrrolidin-1-yl}-propylidene)-5,11-dihydro-10-oxa-1-aza-dibenzo[a,d]cyclohepten-7-yl]-propan-2-ol], which IC50 is on record?
The IC50 was less than 1 µM.

For `CC(C)N(Cc1ccc(Cl)cc1)C1CCN(CCC=C2c3cc(C(C)(C)O)ccc3OCc3ncccc32)C1` (stereo not shown) [Example 551, 2-[5-(3-{3-[(4-Chloro-benzyl)-isopropyl-amino]-pyrrolidin-1-yl}-propylidene)-5,11-dihydro-10-oxa-1-aza-dibenzo[a,d]cyclohepten-7-yl]-propan-2-ol], which IC50 is on record?
Its IC50 is less than 1 µM.

How did the IC50 turn out when `CC(C)(O)c1ccc2c(c1)C(=CCCN1CCC(N(CC(N)=O)Cc3ccc(Cl)cc3)C1)c1cccnc1CO2` (stereo not shown) [Example 552, 2-[(4-Chloro-benzyl)-(1-{3-[7-(1-hydroxy-1-methyl-ethyl)-11H-10-oxa-1-azadibenzo[a,d]cyclohepten-5-ylidene]-propyl}-pyrrolidin-3-yl)-amino]-acetamide] was run?
Its IC50 is less than 1 µM.

Which IC50 does the source give for `CCNC(=O)CN(Cc1ccc(Cl)cc1)C1CCN(CCC=C2c3cc(C(C)(C)O)ccc3OCc3ncccc32)C1` (stereo not shown) [Example 553, 2-[(4-Chloro-benzyl)-(1-{3-[7-(1-hydroxy-1-methyl-ethyl)-11H-10-oxa-1-aza-dibenzo[a,d]cyclohepten-5-ylidene]-propyl}-pyrrolidin-3-yl)-amino]-N-ethyl-acetamide] here?
The IC50 was less than 1 µM.

For `CC(C)(O)c1ccc2c(c1)C(=CCCN1CCC(N(CCO)Cc3ccc(Cl)cc3)C1)c1cccnc1CO2` (stereo not shown) [Example 554, 2-[5-(3-{3-[(4-Chloro-benzyl)-(2-hydroxy-ethyl)-amino]-pyrrolidin-1-yl}-propylidene)-5,11-dihydro-10-oxa-1-aza-dibenzo[a,d]cyclohepten-7-yl]-propan-2-ol], which IC50 is on record?
The IC50 was less than 1 µM.

Which IC50 does the source give for `COC(=O)CCN(Cc1ccc(Cl)cc1)C1CCN(CCC=C2c3cc(C(C)(C)O)ccc3OCc3ncccc32)C1` (stereo not shown) [Example 555, 3-[(4-Chloro-benzyl)-(1-{3-[7-(1-hydroxy-1-methyl-ethyl)-11H-10-oxa-1-aza-dibenzo[a,d]cyclohepten-5-ylidene]-propyl}-pyrrolidin-3-yl)-amino]-propionic acid methyl ester] here?
Its IC50 is less than 1 µM.

How did the IC50 turn out when `C[C@H]1CN(CCC=C2c3cc(C(C)(C)O)ccc3OCc3ncccc32)CCN1c1ccc(Cl)cc1` [Example 556, 2-(5-{3-[4-(4-Chloro-phenyl)-3-(S)-methyl-piperazin-1-yl]-propylidene}-5,11-dihydro-10-oxa-1-aza-dibenzo[a,d]cyclohepten-7-yl)-propan-2-ol] was run?
Its IC50 is less than 1 µM.

`C[C@@H]1CN(CCC=C2c3cc(C(C)(C)O)ccc3OCc3ncccc32)CCN1c1ccc(Cl)cc1` [Example 557, 2-(5-{3-[4-(4-Chloro-phenyl)-3-(R)-methyl-piperazin-1-yl]-propylidene}-5,11-dihydro-10-oxa-1-aza-dibenzo[a,d]cyclohepten-7-yl)-propan-2-ol] was tested. Which IC50 did it give?
Its IC50 is less than 1 µM.

With `COC(=O)CC1CN(CCC=C2c3cc(C(C)(C)O)ccc3OCc3ncccc32)CCN1c1ccc(Cl)cc1` (stereo not shown) [Example 558, (1-(4-Chloro-phenyl)-4-{3-[7-(1-hydroxy-1-methyl-ethyl)-11H-10-oxa-1-aza-dibenzo[a,d]cyclohepten-5-ylidene]-propyl}-piperazin-2-yl)-acetic acid methyl ester] as the compound, how does the IC50 read?
Its IC50 is less than 10 µM.

How did the IC50 turn out when `CC1(C)CN(CCC=C2c3cc(OCCN4CCOCC4)ccc3OCc3ncccc32)CCC1(O)c1ccc(Cl)cc1` (stereo not shown) [Example 559, 4-(4-Chloro-phenyl)-3,3-dimethyl-1-{3-[7-(2-morpholin-4-yl-ethoxy)-11H-10-oxa-1-aza-dibenzo[a,d]cyclohepten-5-ylidene]-propyl}-piperidin-4-ol] was run?
Its IC50 is less than 1 µM.

With `CC(=O)N(Cc1ccc(Cl)cc1)C1CCN(CCC=C2c3cc(C(C)(C)O)ccc3OCc3ncccc32)C1` (stereo not shown) [Example 561, N-(4-Chloro-benzyl)-N-(1-{3-[7-(1-hydroxy-1-methyl-ethyl)-11H-10-oxa-1-aza-dibenzo[a,d]cyclohepten-5-ylidene]-propyl}-pyrrolidin-3-yl)-acetamide] as the compound, how does the IC50 read?
The IC50 was less than 10 µM.

How did the IC50 turn out when `CC(C)C(=O)N(Cc1ccc(Cl)cc1)C1CCN(CCC=C2c3cc(C(C)(C)O)ccc3OCc3ncccc32)C1` (stereo not shown) [Example 562, N-(4-Chloro-benzyl)-N-(1-{3-[7-(1-hydroxy-1-methyl-ethyl)-11H-10-oxa-1-aza-dibenzo[a,d]cyclohepten-5-ylidene]-propyl}-pyrrolidin-3-yl)-isobutyramide] was run?
The IC50 was less than 10 µM.

Which IC50 does the source give for `CCC(=O)N(Cc1ccc(Cl)cc1)C1CCN(CCC=C2c3cc(C(C)(C)O)ccc3OCc3ncccc32)C1` (stereo not shown) [Example 563, N-(4-Chloro-benzyl)-N-(1-{3-[7-(1-hydroxy-1-methyl-ethyl)-11H-10-oxa-1-aza-dibenzo[a,d]cyclohepten-5-ylidene]-propyl}-pyrrolidin-3-yl)-propionamide] here?
Its IC50 is less than 10 µM.

Which IC50 does the source give for `CC(C)(O)c1ccc2c(c1)C(=CCCN1CCC(N(Cc3ccc(Cl)cc3)C(=O)C3CCCC3)C1)c1cccnc1CO2` (stereo not shown) [Example 564, Cyclopentanecarboxylic acid (4-chloro-benzyl)-(1-{3-[7-(1-hydroxy-1-methyl-ethyl)-11H-10-oxa-1-aza-dibenzo[a,d]cyclohepten-5-ylidene]-propyl}-pyrrolidin-3-yl)-amide] here?
Its IC50 is less than 10 µM.

`CC(C)(O)c1ccc2c(c1)C(=CCCN1CCC(N(Cc3ccc(Cl)cc3)C(=O)C3CCCCC3)C1)c1cccnc1CO2` (stereo not shown) [Example 565, Cyclohexanecarboxylic acid (4-chloro-benzyl)-(1-{3-[7-(1-hydroxy-1-methyl-ethyl)-11H-10-oxa-1-aza-dibenzo[a,d]cyclohepten-5-ylidene]-propyl}-pyrrolidin-3-yl)-amide] was tested. Which IC50 did it give?
Its IC50 is less than 10 µM.

Which IC50 does the source give for `CCCCC(CC)C(=O)N(Cc1ccc(Cl)cc1)C1CCN(CCC=C2c3cc(C(C)(C)O)ccc3OCc3ncccc32)C1` (stereo not shown) [Example 566, 2-Ethyl-hexanoic acid (4-chloro-benzyl)-(1-{3-[7-(1-hydroxy-1-methyl-ethyl)-11H-10-oxa-1-aza-dibenzo[a,d]cyclohepten-5-ylidene]-propyl}-pyrrolidin-3-yl)-amide] here?
The IC50 was less than 20 µM.

With `CC(C)NC(=O)N(Cc1ccc(Cl)cc1)C1CCN(CCC=C2c3cc(C(C)(C)O)ccc3OCc3ncccc32)C1` (stereo not shown) [Example 567, 1-(4-Chloro-benzyl)-1-(1-{3-[7-(1-hydroxy-1-methyl-ethyl)-11H-10-oxa-1-aza-dibenzo[a,d]cyclohepten-5-ylidene]-propyl}-pyrrolidin-3-yl)-3-isopropyl-urea] as the compound, how does the IC50 read?
Its IC50 is less than 1 µM.
